Reference: US20100166603A1, “Powder Sterilization” (NOXILIZER, Inc., priority 2008, published 2010)
Values joined by “and” are separate entries in the source; they are usually repeats but may differ in a detail not shown here. Equal values may be shown once.

Experiments:
[1] = test system: spores in PVP/spore mixture powder; experiment: NO2 gas sterilization of tumbled PVP/spore mixture powder in humid air, CFU recovery; type: cell-based; details: for spore concentration after treatment: two vials present; for CFU per 100 mg: single plates
Method: A test to determine whether 100 mg of (PVP) and spore mixture powder could be sterilized using an NO2 gas sterilization process that incorporates a powder tumbling system. The NO2 used was a 10% NO2/90% N2 mixture.
A 2.2 cm diameter circular Tyvek® pieces was likewise cut and the Tyvek® piece was placed between the cap and the silicone septum ring forming a partially breathable cap on the vials, while maintaining the self-healing characteristic of the silicone septum.
The colony forming units (CFU's) recovered from each spore mixture were counted. Multiple plates and dilutions from a given biological indicator (BI) were averaged.
Vials were placed into a cylindrical mesh container. The container was in turn placed into a rock polisher that was configured to spin the container and the vials therein.
The second vial contained 100 mg of PVP/spore mixture with 10 3 mm glass beads (weight of the beads excluded). […]
After the runs, the samples were processed and CFUs were counted after approximately 48 hours of incubation at 35° C.-39° C.

spore population = experiment: NO2 gas exposure of powder under dry conditions (dry air diluent), spore inactivation; type: cell-based; details: 10 mg/l NO2 gas, exposure 60 to 600 minutes
Excerpt: FIG. 10 is a log-linear scale of population against exposure time for an experiment carried out with a dry air diluent.

[2] = Run 2 NX1080423A, 3.0 mm, 5 beads, 0.4% NO2, humid air to 25.13 in Hg, 40 min dwell
[3] = Run 2 NX1080423A, 3.0 mm, 10 beads, 0.4% NO2, humid air to 25.13 in Hg, 40 min dwell
[4] = Run 4 NX1080424B, 3.0 mm beads, Table 4 cycle, humid air per Table 5
[5] = Run 5 NX1080429A, 3.0 mm beads, Table 4 cycle, humid air per Table 5
[6] = Run 6 NX1080429B, 3.0 mm beads, Table 4 cycle, humid air per Table 5
[7] = Run 7 NX1080429C, 3.0 mm beads, Table 4 cycle, humid air per Table 5

[O]N=O [NO2, nitrogen dioxide]
final spore concentration ([1]; 0.5 mm bead samples, three pulses, 21 in Hg of humidity added): 4.0×10^−1 spores/100 mg
spore concentration after treatment ([1]; 0.5 mm bead samples, 17 in Hg of humidity added): 1.3×10^2 spores/100 mg
spore concentration after treatment ([1]; 0.5 mm bead samples, 21 in Hg of humidity added): 1.8×10^3 spores/100 mg
spore concentration after treatment ([1]; 0.5 mm bead samples, 23 in Hg of humidity added): 3.5×10^2 spores/100 mg
Average per 100 mg ([1]; Run 1 NX1080422A, 0.5 mm beads, first vial, 0.4% NO2, humid air to 25.13 in Hg, 40 min dwell): 2.4 × 10^4 per 100 mg
Average per 100 mg ([1]; Run 1 NX1080422A, 0.5 mm beads, second vial, 0.4% NO2, humid air to 25.13 in Hg, 40 min dwell): 6.2 × 10^4 per 100 mg
Average per 100 mg [1, 2]: >2.0 × 10^5 per 100 mg
CFU per 100 mg [1, 2]: >2.0 × 10^5 CFU per 100 mg
Average per 100 mg [1, 3]: >2.0 × 10^5 per 100 mg
CFU per 100 mg [1, 3]: >2.0 × 10^5 CFU per 100 mg
Average per 100 mg ([1]; Run 3 NX1080424A, 0.5 mm beads, pre-humidity 10 min, 0.2%+0.2% NO2 with humid air, 10 min dwell, cycle repeats 2): 3.4 × 10^3 per 100 mg
Average per 100 mg ([1]; Run 3 NX1080424A, 3.0 mm beads, pre-humidity 10 min, 0.2%+0.2% NO2 with humid air, 10 min dwell, cycle repeats 2): 8.6 × 10^4 per 100 mg
Average per 100 mg ([1]; Run 4 NX1080424B, 0.5 mm beads, Table 4 cycle: pre-NO2 0.4% 10 min, 0.2%+0.2% NO2, humid air per Table 5, 10 min dwell): 1.8 × 10^3 per 100 mg
Average per 100 mg [1, 4]: 4.0 × 10^4 per 100 mg
CFU per 100 mg [1, 4]: 4.0 × 10^4 CFU per 100 mg and 3.2 × 10^4 CFU per 100 mg and 5.4 × 10^4 CFU per 100 mg and 3.5 × 10^5 CFU per 100 mg
Average per 100 mg ([1]; Run 5 NX1080429A, 0.5 mm beads, Table 4 cycle, humid air per Table 5): 3.5 × 10^2 per 100 mg
Average per 100 mg [1, 5]: 3.6 × 10^4 per 100 mg
CFU per 100 mg [1, 5]: 3.5 × 10^4 CFU per 100 mg and 3.6 × 10^4 CFU per 100 mg
Average per 100 mg ([1]; Run 6 NX1080429B, 0.5 mm beads, Table 4 cycle, humid air per Table 5): 1.1 × 10^2 per 100 mg
Average per 100 mg [1, 6]: 1.9 × 10^4 per 100 mg
CFU per 100 mg [1, 6]: 1.6 × 10^4 CFU per 100 mg and 1.8 × 10^4 CFU per 100 mg and 2.7 × 10^4 CFU per 100 mg
Average per 100 mg ([1]; Run 7 NX1080429C, 0.5 mm beads, Table 4 cycle, humid air per Table 5): 1.3 × 10^2 per 100 mg
Average per 100 mg [1, 7]: 2.3 × 10^4 per 100 mg
CFU per 100 mg [1, 7]: 2.1 × 10^4 CFU per 100 mg and 2.0 × 10^4 CFU per 100 mg and 2.9 × 10^4 CFU per 100 mg and 2.3 × 10^4 CFU per 100 mg
Average per 100 mg ([1]; Run 8 NX1080501B, 0.5 mm beads, one vial, Table 4 cycle, humid air and repeats per Table 5): 1.8 × 10^2 per 100 mg
Average per 100 mg ([1]; Run 9 NX1080501C, 0.5 mm beads, one vial, Table 4 cycle, humid air and repeats per Table 5): 3.3 × 10^1 per 100 mg
Average per 100 mg ([1]; Run 10 NX1080501D, 0.5 mm beads, one vial, Table 4 cycle, humid air and repeats per Table 5): 5.0 × 10^0 per 100 mg
Average per 100 mg ([1]; Run 11 NX1080501E, 0.5 mm beads, one vial, Table 4 cycle, humid air and repeats per Table 5): 1.3 × 10^2 per 100 mg
Average per 100 mg ([1]; Run 12 NX1080505A, 0.5 mm beads, one vial, Table 4 cycle, humid air and repeats per Table 5): 2.2 × 10^1 per 100 mg
Average per 100 mg ([1]; Run 13 NX1080505B, 0.5 mm beads, one vial, Table 4 cycle, humid air and repeats per Table 5): 2.0 × 10^0 per 100 mg
Average per 100 mg ([1]; Run 14 NX1080505C, 0.5 mm beads, one vial, Table 4 cycle, humid air and repeats per Table 5): 4.0 × 10^−1 per 100 mg
Average per 100 mg ([1]; Run 15 NX1080505D, 0.5 mm beads, one vial, Table 4 cycle, humid air and repeats per Table 5): 8.0 × 10^0 per 100 mg
lethality (spore population): acceptable lethality
